Measurements taken from patent US7611853B2, “Assay to screen for anti-malarials” (priority 2002, dated 2009).

Legend:
[1] = test system: Plasmodium falciparum; test: Growth inhibitory effect of GA on synchronous parasites (Giemsa-stained smears); format: cell-based
Excerpt: In order to check if GA could inhibit Plasmodium falciparum growth in vitro, we prepared highly synchronous ring-infected parasites using 5% sorbitol. These ring-staged parasites were suspended in RPMI to make 5% hematocrit. […] This correlates with elevated expression of Pfhsp90 in the trophozoite stage compared to ring stage.

[2] = test system: Plasmodium falciparum ring-infected erythrocytes; test: Anti-malarial effect of GA and HA on overall parasitemia (giemsa staining); format: cell-based
Description: To show the effects of GA on overall parasitemia, ring-infected erythrocytes were either treated with DMSO or with 5 μM GA for 48 hrs (culture was replenished with medium and GA every 24 hrs) and parasitemia was calculated by giemsa staining. While the mock-treated parasites multiplied at the end of 48 hrs, parasitemia was reduced to 50 percent in GA treated cultures by 48 hrs.

With COC1=C2C[C@@H](C)C[C@H](OC)[C@H](O)[C@@H](C)/C=C(\C)[C@H](OC(N)=O)[C@@H](OC)/C=C\C=C(/C)C(=O)NC(=CC1=O)C2=O [GA, Geldanamycin] the inhibition at 10 µM ([1]; Plasmodium falciparum, GA added in the trophozoite stage, 10 μM) was 100%, the “concentration of maximal growth inhibition” value ([1]; ring-staged parasites, 24 h) was 5 µM and the “parasitemia reduced to” value ([2]; ring-infected erythrocytes, 5 μM, 48 hrs, replenished every 24 hrs) was 50%.

CO[C@H]1[C@@H](OC)C[C@H](C)[C@@H](OC)C2=CC(=O)C=C(NC(=O)/C(C)=C/C=C\[C@H](OC)[C@@H](OC(N)=O)/C(C)=C/[C@@H]1C)C2=O [HA, Herbimycin A] was tested, and the “anti-malarial effect (summary statement)” value [2] was “kill the malarial parasite at the stage of early trophozoite development” and the “concentration of maximal reduction in parasitemia” value ([2]; 0.5, 1, 5 and 10 μM tested, 48 hrs) was 10 µM.
